# Experimental data: US11078496B2, “System for F-box hormone receptor regulated protein expression in mammalian cells” (ICAHN SCHOOL OF MEDICINE AT MOUNT SINAI, priority 2016, dated 2021)
# System: J-p53 (OsJAZ^33-p53)
# Assay: Coronatine-dependent degradation of J-p53 in H9 hESCs (western blot quantification)
# Type: cell-based, human
# Details: 50 μM coronatine, 1 day
# Procedure: FIGS. 11A-11G illustrate a coronatine-induced degradation rescue system. […] GFP fluorescence was measured by flow cytometry and % degradation was calculated. The corresponding components and biological replicate number (n) are indicated. The bar for pJAZ 6-Os23 is in grey color, to indicate reduced GFP fluorescence in non-treated cells (FIG. 10F). […] GFP fluorescence was measured using flow cytometry. The experiment was repeated three times, and representative results are presented. In FIGS. 11C-11D, H9 hESCs were infected with pJAZ NLS-GFP-OsJAZ^33 (“GFP-J”) or pJAZ OsJAZ^33-p^53 (“J-p53”) that harbors an shRNA targeting the 3′-UTR of p53 and an OsJAZ^33degron-fused p53 coding sequence lacking UTRs. […] P-values were calculated using unpaired Student's t-test. […] After 24 hours, microscopic bright-field (“BF”) and fluorescence images were taken (FIG. 11E, scale bars, 100 μm) and cells were subjected to flow analysis (FIG. 11F, contour plots; FIG. 11G, quantification, error bars represent standard deviation.). […]
# Cells were lysed in RIPA-B buffer (20 mM Na2HPO4 pH 7.4, 150 mM NaCl and 1% Triton X-100) supplemented with Protease Inhibitor Cocktail (Roche) for 30 minutes on ice with occasional vortexing, followed by 30 minutes centrifugation at 13,000 relative centrifugal force at 4° C. […] Luminescence was detected with X-ray films, which were scanned, or using the Bio-Rad ChemiDoc MP System. […]
smiles,measurement,value
"CC[C@H]1C=C(C(=O)N[C@@]2(C(=O)O)C[C@@H]2CC)[C@H]2CCC(=O)[C@H]2C1 [coronatine, Coronatine]",coronatine-dependent degradation of J-p53,90%
